What was measured:
[1] = molecular target: T1, Phosphatidylinositol 4,5-bisphosphate 3-kinase catalytic subunit alpha isoform (Homo sapiens, UniProt P42336); test: Inhibition of PIK3CA (unknown origin) using diC8-PIP2 as substrate preincubated for 30 mins followed by substrate addition and measured after 60 mins by ADP-Glo assay
[2] = molecular target: T1, Phosphatidylinositol 4,5-bisphosphate 3-kinase catalytic subunit alpha isoform; test: Inhibition of PIK3CA (unknown origin) expressed in MCF-10A cells incubated for 2 hrs by HTRF method; type: cell-based

T1 sequence (P42336 whole entry, canonical isoform): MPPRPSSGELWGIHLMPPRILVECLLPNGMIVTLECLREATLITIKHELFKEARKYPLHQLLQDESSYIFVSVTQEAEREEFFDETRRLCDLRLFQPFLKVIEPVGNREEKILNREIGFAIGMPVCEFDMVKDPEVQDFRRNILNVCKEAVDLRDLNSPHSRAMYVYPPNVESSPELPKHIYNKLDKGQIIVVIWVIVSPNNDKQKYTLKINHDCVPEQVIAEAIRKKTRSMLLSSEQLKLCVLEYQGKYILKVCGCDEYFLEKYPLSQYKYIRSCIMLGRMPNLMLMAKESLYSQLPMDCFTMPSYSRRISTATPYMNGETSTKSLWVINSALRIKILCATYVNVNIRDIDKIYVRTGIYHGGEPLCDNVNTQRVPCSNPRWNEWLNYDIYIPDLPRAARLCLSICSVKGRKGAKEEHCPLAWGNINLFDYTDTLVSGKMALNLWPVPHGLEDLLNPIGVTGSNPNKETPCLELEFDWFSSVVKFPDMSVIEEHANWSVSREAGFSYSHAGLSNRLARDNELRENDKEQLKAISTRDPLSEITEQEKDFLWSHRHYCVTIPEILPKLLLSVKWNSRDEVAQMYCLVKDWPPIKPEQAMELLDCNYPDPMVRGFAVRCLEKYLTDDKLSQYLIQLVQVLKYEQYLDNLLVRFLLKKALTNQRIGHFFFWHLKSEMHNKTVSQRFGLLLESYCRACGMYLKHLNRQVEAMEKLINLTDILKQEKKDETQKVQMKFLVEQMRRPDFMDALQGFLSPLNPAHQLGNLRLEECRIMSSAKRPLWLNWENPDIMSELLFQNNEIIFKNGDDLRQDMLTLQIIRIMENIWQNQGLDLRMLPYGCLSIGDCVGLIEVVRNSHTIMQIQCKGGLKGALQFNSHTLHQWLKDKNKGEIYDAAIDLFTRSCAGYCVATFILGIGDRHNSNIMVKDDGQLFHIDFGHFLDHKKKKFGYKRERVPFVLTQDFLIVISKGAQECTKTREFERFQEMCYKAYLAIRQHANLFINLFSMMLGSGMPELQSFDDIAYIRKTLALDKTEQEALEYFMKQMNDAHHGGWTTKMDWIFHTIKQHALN

| IC50 [1] [nM] | IC50 [2] [nM] | SMILES |
| --- | --- | --- |
| 100 | 1000 | Cc1ccccc1Nc1ncc(C(=O)NC2CC(F)(F)C2)cc1NC(=O)c1cc(F)cc(C(F)(F)F)c1 |
| ≤ 100 | 1000 | Cc1ccccc1Nc1ncc(C(=O)NC2C[S+]([O-])C2)cc1NC(=O)c1csc2ccccc12 (centres undefined) |
| ≤ 100 | 5000 | Cc1ccccc1Nc1ncc(C(=O)NCc2nccs2)cc1NC(=O)c1csc2ccccc12 |
| 100 | ≤ 1000 | Cc1ccccc1Nc1ncc(C(=O)Nc2ccncc2)cc1NC(=O)c1cc(F)cc(C(F)(F)F)c1 |
| 100 | 1000 | Cc1ccccc1Nc1ncc(C(=O)NCc2ccc(Cl)cc2)cc1NC(=O)c1csc2ccccc12 |
| 100 | 1000 | Cc1ccccc1Nc1ncc(C(=O)NCC2CC(F)(F)C2)cc1NC(=O)c1cc(F)cc(C(F)(F)F)c1 |
| 100 | 1000 | Cc1ccccc1Nc1ncc(C(=O)NCc2ccnn2C)cc1NC(=O)c1cc(F)cc(C(F)(F)F)c1 |
| ≤ 100 | 1000 | Cc1ccccc1Nc1ncc(C(=O)NC2CS(=O)(=O)C2)cc1NC(=O)c1csc2ccccc12 |
| 100 | 1000 | Cc1ccccc1Nc1ncc(C(=O)NCc2ccn(C)n2)cc1NC(=O)c1cc(F)cc(C(F)(F)F)c1 |
| ≤ 100 | ≤ 1000 | Cc1ccccc1Nc1ncc(C(=O)NC2CS(=O)(=O)C2)cc1NC(=O)c1cc(F)cc(C(F)(F)F)c1 |
| 100 | 1000 | Cc1ccccc1Nc1ncc(C(=O)NCc2ccnn2C)cc1NC(=O)c1csc2ccccc12 |
| 100 | 1000 | Cc1ccccc1Nc1ncc(-c2cncc(C#N)c2)cc1NC(=O)c1cc(F)cc(C(F)(F)F)c1 |
